These are literature values, as cited in patent US6645508B1, “Stable L-ascorbic acid composition” (priority 1999, dated 2003).

The series deals with human skin fibroblasts. Conditions: at concentrations equivalent to L-Ascorbic acid.

Regarding `CCCCCCCCCCCCCCCC(=O)OC[C@H](O)[C@H]1OC(=O)C(O)=C1O` [ascorbyl palmitate], the “effect on human skin fibroblasts” value is “killed human skin fibroblasts”.
